SMILES strings stand for the structures.

One experiment deals with T1, PI3Kβ (Homo sapiens, UniProt P42338).
T1 construct: purchased Millipore Corporation 14-603-K
Put plainly: PI3 Kinase HTRF assay, PI3Kβ. Format: biochemical. The following applies: 10 μM PIP2, 10 μM ATP; read-out: PI3K β IC50. In a few lines: (§1)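 Enzyme 0.25-0.3 ug/ml + 10 uM PIP2 + compound (2% DMSO), 15 min RT; add ATP to 10 μM, 1 h RT; stop, add detection mix, 1 h RT; TR-FRET read. IC50 by nonlinear regression.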

The test system of a further experiment is Balb/c splenic B cells. Nature of the experiment: B cell activation and proliferation assay (Alamar Blue). Format: cell-based. The following applies: Mus musculus, read-out: B cell prolif. IC50. The method in brief:
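Purified cells (50,000/well, RPMI + 10% FBS) were preincubated 30 min at 37 °C with compound (0.2% DMSO final). Stimulation was with a cocktail containing either 10 ug/ml LPS or 5 ug/ml anti-mouse IgM F(ab′)2 plus 2 ng/ml mouse IL4, for 72 h. Viability by 5 h Alamar Blue reduction (560Ex/590Em); IC50 or EC50 fitted.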

The target of a further experiment is T2, PI3Kγ (Homo sapiens, UniProt P48736).
T2 construct: purchased Millipore Corporation 14-558-K
Nature of the experiment: PI3 Kinase HTRF assay, PI3Kγ. Format: biochemical. The following applies: 10 μM PIP2, 10 μM ATP; read-out: PI3K γ IC50. The method in brief:
as §1
In general terms: In TR-FRET formats the signal depends on donor and acceptor labels being close together.

The target of another experiment is T3, PI3Kδ (Homo sapiens, UniProt O00329).
T3 construct: purchased Millipore Corporation 14-604-K
Put plainly: PI3 Kinase HTRF assay, PI3Kδ. As to conditions: 10 μM PIP2, 10 μM ATP; read-out: PI3K δ IC50. The format is biochemical. The method in brief: as §1

Another experiment concerns the target T4, PI3Kα (Homo sapiens, UniProt P42336).
T4 construct: purchased Millipore Corporation 14-602-K
Put plainly: PI3 Kinase HTRF assay, PI3Kα. The format is biochemical. The following applies: 10 μM PIP2, 10 μM ATP; read-out: PI3K α IC50. In a few lines: as §1

T2 sequence (P48736 whole entry): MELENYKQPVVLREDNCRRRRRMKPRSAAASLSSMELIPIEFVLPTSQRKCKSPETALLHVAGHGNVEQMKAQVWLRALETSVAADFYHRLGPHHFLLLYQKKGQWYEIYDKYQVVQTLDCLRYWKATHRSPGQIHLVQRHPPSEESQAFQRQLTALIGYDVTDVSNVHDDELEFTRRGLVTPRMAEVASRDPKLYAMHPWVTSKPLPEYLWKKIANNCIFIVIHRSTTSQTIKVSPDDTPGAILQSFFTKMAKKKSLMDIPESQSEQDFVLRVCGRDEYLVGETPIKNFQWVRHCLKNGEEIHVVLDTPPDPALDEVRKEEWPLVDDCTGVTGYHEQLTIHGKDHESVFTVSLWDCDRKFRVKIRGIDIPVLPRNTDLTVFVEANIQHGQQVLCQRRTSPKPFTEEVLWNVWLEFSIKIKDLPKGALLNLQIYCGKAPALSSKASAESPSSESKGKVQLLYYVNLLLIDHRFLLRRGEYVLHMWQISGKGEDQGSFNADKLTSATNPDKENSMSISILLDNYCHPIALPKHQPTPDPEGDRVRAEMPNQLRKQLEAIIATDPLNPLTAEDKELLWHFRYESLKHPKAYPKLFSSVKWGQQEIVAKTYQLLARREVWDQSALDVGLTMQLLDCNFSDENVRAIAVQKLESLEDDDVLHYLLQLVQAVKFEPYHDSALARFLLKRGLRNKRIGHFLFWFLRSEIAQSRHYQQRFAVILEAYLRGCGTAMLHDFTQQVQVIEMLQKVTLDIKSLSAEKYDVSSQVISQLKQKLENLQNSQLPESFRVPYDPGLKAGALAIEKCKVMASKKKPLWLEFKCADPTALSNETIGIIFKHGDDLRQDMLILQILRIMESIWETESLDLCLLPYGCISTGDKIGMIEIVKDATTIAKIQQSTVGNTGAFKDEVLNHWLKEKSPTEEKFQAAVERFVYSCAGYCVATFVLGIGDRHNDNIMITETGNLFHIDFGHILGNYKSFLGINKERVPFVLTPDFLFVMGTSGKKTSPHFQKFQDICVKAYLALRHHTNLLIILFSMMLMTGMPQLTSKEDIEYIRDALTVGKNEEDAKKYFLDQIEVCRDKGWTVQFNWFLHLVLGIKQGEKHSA
T3 sequence (O00329 whole entry): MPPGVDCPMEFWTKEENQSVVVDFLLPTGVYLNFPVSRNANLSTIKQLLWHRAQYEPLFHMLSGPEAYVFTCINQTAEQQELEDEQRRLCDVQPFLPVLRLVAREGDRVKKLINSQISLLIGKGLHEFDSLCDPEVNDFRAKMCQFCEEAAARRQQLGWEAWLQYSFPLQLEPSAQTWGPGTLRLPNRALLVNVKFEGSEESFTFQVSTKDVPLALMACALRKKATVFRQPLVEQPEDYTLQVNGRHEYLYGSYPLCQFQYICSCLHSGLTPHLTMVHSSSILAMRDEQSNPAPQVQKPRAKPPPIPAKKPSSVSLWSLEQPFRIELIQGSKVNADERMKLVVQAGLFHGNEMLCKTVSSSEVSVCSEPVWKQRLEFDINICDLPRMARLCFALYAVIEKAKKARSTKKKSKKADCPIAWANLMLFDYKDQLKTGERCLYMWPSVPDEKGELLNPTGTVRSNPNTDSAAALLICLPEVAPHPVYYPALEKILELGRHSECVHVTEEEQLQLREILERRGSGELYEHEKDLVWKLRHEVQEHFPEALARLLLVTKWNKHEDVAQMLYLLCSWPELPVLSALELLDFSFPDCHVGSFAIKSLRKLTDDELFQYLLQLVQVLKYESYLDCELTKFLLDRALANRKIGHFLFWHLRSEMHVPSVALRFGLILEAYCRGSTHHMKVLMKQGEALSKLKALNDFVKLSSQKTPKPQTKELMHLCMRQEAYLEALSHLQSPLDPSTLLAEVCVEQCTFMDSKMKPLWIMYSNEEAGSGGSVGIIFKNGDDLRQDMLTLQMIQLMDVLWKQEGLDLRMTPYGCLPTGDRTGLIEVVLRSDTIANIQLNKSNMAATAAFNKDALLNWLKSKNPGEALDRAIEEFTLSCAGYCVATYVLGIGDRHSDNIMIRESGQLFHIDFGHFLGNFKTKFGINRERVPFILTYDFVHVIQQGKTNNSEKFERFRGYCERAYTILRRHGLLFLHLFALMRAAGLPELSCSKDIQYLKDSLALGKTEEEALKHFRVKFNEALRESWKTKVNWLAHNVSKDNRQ
T3 sequence (P27986 whole entry partner): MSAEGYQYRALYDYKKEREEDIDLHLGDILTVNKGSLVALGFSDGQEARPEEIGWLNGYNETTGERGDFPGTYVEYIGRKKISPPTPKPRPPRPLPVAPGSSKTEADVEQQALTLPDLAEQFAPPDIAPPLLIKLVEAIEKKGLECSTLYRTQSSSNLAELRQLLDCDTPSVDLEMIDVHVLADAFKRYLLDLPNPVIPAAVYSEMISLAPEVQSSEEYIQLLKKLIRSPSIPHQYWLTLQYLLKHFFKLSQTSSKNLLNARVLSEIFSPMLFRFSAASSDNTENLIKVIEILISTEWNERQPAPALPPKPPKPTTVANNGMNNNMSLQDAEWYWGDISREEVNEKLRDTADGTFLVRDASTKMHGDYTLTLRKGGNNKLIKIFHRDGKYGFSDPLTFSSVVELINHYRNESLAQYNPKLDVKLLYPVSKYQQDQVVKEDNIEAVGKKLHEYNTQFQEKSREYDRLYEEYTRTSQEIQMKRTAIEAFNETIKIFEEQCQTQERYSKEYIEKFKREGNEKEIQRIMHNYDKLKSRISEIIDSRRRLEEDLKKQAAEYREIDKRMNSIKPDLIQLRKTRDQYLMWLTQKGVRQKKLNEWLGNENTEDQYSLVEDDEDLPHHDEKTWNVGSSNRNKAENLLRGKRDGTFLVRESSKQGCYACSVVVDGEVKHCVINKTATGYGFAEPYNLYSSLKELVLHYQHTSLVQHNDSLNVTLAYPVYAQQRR
T1 sequence (P42338 whole entry): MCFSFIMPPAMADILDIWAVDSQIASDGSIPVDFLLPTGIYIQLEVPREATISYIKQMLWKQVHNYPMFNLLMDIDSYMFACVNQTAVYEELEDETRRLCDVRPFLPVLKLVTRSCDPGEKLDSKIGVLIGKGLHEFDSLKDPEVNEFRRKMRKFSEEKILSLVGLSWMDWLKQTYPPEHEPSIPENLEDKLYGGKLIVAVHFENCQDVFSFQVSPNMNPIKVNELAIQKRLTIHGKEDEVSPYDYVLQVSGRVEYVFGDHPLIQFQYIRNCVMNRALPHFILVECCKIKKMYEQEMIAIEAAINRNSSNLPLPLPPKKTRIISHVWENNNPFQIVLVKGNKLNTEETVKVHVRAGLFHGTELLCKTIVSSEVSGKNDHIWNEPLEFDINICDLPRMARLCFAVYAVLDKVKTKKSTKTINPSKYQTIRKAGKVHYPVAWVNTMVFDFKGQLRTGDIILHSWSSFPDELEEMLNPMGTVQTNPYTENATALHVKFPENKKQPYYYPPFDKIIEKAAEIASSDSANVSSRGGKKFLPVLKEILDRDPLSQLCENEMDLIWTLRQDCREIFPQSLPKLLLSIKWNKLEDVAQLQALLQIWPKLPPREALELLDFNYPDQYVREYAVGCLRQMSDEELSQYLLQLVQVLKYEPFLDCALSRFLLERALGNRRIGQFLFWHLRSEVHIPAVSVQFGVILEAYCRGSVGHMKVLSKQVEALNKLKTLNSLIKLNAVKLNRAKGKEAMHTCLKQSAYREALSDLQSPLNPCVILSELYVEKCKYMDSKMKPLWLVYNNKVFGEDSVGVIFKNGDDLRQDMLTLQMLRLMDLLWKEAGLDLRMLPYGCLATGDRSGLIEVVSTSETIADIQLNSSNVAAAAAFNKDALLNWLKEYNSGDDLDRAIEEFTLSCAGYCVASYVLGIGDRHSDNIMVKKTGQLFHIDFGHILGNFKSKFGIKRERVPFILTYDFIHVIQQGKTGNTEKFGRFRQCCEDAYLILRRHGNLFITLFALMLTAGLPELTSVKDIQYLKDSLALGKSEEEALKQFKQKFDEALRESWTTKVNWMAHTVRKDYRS
T1 sequence (P27986 whole entry partner): as the sequence (P27986 whole entry partner) above
T4 sequence (P42336 whole entry): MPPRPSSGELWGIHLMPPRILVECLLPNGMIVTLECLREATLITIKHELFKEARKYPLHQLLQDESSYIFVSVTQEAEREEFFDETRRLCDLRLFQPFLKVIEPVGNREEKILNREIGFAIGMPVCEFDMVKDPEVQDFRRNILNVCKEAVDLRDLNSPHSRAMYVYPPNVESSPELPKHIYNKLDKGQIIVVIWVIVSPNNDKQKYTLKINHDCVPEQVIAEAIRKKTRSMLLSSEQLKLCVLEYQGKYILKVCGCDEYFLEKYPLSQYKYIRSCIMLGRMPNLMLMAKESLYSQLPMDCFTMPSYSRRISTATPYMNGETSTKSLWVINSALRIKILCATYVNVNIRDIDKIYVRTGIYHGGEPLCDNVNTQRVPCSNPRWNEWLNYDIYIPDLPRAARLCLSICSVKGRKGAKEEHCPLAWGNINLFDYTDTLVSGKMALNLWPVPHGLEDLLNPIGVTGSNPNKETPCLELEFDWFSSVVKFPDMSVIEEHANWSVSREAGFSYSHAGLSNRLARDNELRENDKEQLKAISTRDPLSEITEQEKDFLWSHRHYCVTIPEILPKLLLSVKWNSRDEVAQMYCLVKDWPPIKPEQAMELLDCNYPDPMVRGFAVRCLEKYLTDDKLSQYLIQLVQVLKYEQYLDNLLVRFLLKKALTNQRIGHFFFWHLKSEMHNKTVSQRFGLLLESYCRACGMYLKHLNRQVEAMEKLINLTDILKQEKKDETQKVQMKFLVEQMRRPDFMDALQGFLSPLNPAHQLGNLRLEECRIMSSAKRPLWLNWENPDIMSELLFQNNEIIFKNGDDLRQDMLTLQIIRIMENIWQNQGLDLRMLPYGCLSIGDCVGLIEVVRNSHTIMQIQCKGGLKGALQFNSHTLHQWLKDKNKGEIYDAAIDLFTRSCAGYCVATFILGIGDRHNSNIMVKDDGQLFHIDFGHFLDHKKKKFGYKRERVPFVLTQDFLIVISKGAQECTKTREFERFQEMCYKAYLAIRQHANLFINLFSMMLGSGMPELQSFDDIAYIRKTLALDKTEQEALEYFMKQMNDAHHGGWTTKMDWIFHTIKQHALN
T4 sequence (P27986 whole entry partner): as the sequence (P27986 whole entry partner) above

As to `C[C@H](Nc1ccnc2ccnn12)c1cc2cccc(Cl)c2c(C(=O)N2C3CCC2COC3)n1` [Compound 125], the IC50 at PI3Kβ is under 10 µM; with Balb/c splenic B cells, under 100 nM; at PI3Kγ it was under 10 µM; at PI3Kδ it was under 100 nM; at PI3Kα it was over 10 µM.
`C[C@H](Nc1ncnc2[nH]cnc12)c1cc2cccc(Cl)c2c([S+]([O-])CCN2CCOCC2)n1` (some centres unmarked) [Compound 129]: the IC50 was under 1 µM on PI3Kβ; under 1000 nM with Balb/c splenic B cells; under 1 µM on PI3Kγ; under 100 nM at PI3Kδ; under 10 µM at PI3Kα.
As to `C[C@H](Nc1ncnc2[nH]cnc12)c1cc2cccc(Cl)c2c(SCCN2CCCC2)n1` [Compound 135], the IC50 is under 10 µM on PI3Kβ; under 1000 nM in the experiment on Balb/c splenic B cells; over 10 µM on PI3Kγ; under 100 nM on PI3Kδ; over 10 µM at PI3Kα.
Regarding `C[C@H](Nc1ncnc2[nH]cnc12)c1cc2cccc(Cl)c2c([S+]([O-])CCN2CCCC2)n1` (some centres unmarked) [Compound 136], the IC50 was under 10 µM on PI3Kβ; under 100 nM in the experiment on Balb/c splenic B cells; under 10 µM at PI3Kγ; under 100 nM at PI3Kδ; under 10 µM at PI3Kα.
In the case of `C[C@H](Nc1ncnc2scnc12)c1cc2cccc(Cl)c2c(C(=O)NC2CCOCC2)n1` [Compound 144], the concentration for half-maximal inhibition (IC50) at PI3Kβ is over 10 µM; in the experiment with Balb/c splenic B cells it was under 100 nM; on PI3Kγ, under 10 µM; on PI3Kδ, under 100 nM; on PI3Kα it was over 10 µM.
With `Cc1cccc2cc([C@H](C)Nc3ncnc4[nH]cnc34)nc(OCCN3CCCC3)c12` [Compound 145], the IC50 on PI3Kβ was under 10 µM; with Balb/c splenic B cells, under 100 nM; at PI3Kγ, over 10 µM; on PI3Kδ, under 100 nM; on PI3Kα it was over 10 µM.
As to `Cc1cccc2cc([C@H](C)Nc3ncnc4[nH]cnc34)nc(CCN3CCOCC3)c12` [Compound 146], the IC50 at PI3Kβ was under 10 µM; with Balb/c splenic B cells, under 100 nM; on PI3Kγ, under 10 µM; at PI3Kδ it was under 100 nM; at PI3Kα, over 10 µM.
For `Cc1cccc2cc([C@H](C)Nc3ncnc4[nH]cnc34)nc(C(=O)N3C4CCC3COC4)c12` [Compound 149], the half-maximal inhibitory concentration (IC50) was over 10 µM on PI3Kβ; under 100 nM in the experiment on Balb/c splenic B cells; under 10 µM on PI3Kγ; under 100 nM on PI3Kδ; over 10 µM on PI3Kα.
Consider `C[C@H](Nc1ncnc2[nH]cnc12)c1cc2cccc(-c3cnn(C)c3)c2c(OCCN2CCCC2)n1` [Compound 151], for which the IC50 was under 10 µM on PI3Kβ; under 100 nM in the experiment with Balb/c splenic B cells; under 10 µM at PI3Kγ; under 100 nM at PI3Kδ; over 10 µM on PI3Kα.
Take `CC(C)N1CCC(Oc2nc([C@H](C)Nc3ncnc4[nH]cnc34)cc3cccc(-c4cnn(C)c4)c23)CC1` [Compound 158]: the IC50 on PI3Kβ is under 10 µM; with Balb/c splenic B cells, under 1000 nM; at PI3Kγ it was over 10 µM; at PI3Kδ, under 100 nM; on PI3Kα it was over 10 µM.
On to `CC(C)N1CCC(Oc2nc([C@H](C)Nc3ncnc4cccnc34)cc3cccc(-c4cnn(C)c4)c23)CC1` [Compound 160], for which the IC50 is over 10 µM on PI3Kβ; under 100 nM in the experiment with Balb/c splenic B cells; under 10 µM on PI3Kγ; under 100 nM on PI3Kδ; under 10 µM at PI3Kα.
Regarding `Cc1cccc2cc([C@H](C)Nc3ncnc4cccnc34)nc(OCCN3CCCC3)c12` [Compound 162], the 50% inhibitory concentration (IC50) on PI3Kβ is under 10 µM; in the experiment with Balb/c splenic B cells, under 100 nM; at PI3Kγ, under 1 µM; at PI3Kδ, under 100 nM; on PI3Kα it was under 1 µM.
On to `Cc1cccc2cc([C@H](C)Nc3ncnc4cccnc34)nc(OC3CCN(C(C)C)CC3)c12` [Compound 163], for which the IC50 at PI3Kβ is over 10 µM; with Balb/c splenic B cells, under 100 nM; on PI3Kγ it was under 10 µM; on PI3Kδ, under 100 nM; on PI3Kα, under 10 µM.

As a reminder, the IC50 is the point on the concentration scale where inhibition reaches its midpoint.

These data come from US8901133B2, “Heterocyclic compounds and uses thereof” (Infinity Pharmaceuticals, Inc., priority 2010, dated 2014).
